Test results published in ChEMBL document CHEMBL3431459, “Roche carnitine palmitoyltransferase modulator screening data (supplementary data associated with the publication CHEMBL2216752)”.
≈ marks a conversion by molar mass, not a printed value.

Experiments:
[1] = target: T1, Carnitine O-palmitoyltransferase 1, muscle isoform (Homo sapiens, UniProt Q92523); experiment: SUPPLEMENTARY: Inhibition of Carnitine palmitoyltransferase 1, muscle isoform; set-up: species or system Muscle tissue
T1 sequence (Q92523 whole entry): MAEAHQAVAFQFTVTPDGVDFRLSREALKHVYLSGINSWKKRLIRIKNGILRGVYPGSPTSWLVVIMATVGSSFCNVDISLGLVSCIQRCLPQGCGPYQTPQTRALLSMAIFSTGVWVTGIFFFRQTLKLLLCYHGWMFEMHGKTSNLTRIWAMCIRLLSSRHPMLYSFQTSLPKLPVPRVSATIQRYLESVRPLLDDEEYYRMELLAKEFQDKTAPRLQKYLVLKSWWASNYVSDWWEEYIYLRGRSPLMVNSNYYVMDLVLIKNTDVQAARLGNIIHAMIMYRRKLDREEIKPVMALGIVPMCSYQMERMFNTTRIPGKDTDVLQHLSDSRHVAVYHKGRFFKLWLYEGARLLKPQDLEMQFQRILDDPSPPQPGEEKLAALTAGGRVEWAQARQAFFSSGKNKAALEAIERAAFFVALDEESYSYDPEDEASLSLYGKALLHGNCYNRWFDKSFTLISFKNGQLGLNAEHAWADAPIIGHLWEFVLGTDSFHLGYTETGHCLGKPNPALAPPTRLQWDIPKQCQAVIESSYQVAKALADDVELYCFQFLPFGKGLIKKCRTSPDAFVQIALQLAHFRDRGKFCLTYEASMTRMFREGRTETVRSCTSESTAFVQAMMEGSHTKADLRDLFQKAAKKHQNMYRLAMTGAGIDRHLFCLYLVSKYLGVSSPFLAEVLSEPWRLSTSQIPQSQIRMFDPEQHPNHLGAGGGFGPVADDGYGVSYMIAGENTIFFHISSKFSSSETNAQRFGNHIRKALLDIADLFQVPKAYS

[2] = target: T2, Carnitine O-palmitoyltransferase 2, mitochondrial (Homo sapiens, UniProt P23786); experiment: (§1) SUPPLEMENTARY: Inhibition of Carnitine palmitoyltransferase 2
T2 sequence (P23786 whole entry): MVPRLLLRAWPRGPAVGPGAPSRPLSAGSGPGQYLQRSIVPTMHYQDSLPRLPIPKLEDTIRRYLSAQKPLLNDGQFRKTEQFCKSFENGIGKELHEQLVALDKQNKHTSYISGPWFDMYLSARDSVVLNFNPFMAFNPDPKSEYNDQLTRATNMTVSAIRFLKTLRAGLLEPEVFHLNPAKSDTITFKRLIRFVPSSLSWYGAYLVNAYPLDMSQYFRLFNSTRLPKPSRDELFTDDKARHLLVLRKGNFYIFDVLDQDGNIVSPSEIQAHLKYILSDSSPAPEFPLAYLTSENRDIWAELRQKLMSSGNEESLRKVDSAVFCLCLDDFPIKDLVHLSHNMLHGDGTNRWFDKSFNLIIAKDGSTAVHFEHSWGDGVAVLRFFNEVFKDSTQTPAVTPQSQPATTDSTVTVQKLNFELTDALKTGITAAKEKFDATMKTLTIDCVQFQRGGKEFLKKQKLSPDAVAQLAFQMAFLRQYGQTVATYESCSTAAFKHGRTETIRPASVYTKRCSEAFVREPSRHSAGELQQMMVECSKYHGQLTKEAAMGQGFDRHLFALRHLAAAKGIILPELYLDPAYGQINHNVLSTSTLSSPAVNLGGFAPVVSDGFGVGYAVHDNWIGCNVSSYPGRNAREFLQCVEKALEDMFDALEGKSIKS

[3] = target: T3, Carnitine O-palmitoyltransferase 2, mitochondrial (Rattus norvegicus, UniProt P18886); experiment: as §1
T3 sequence (P18886 whole entry): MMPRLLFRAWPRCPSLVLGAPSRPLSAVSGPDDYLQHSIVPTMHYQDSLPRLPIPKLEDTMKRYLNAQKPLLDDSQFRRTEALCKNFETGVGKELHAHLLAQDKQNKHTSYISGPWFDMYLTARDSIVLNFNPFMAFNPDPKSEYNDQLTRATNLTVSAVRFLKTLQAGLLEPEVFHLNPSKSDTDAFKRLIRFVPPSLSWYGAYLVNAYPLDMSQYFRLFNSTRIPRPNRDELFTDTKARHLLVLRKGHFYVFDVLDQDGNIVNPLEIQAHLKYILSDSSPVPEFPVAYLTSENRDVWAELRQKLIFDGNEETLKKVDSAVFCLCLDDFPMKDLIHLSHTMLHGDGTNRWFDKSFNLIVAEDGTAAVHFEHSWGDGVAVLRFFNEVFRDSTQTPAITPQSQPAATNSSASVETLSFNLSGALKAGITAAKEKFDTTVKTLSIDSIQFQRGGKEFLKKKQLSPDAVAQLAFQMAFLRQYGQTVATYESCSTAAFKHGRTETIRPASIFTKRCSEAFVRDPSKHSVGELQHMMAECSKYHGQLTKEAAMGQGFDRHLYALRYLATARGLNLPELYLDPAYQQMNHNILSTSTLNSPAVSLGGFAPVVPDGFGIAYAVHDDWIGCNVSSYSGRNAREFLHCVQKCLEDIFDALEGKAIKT

[4] = target: T4, Carnitine O-palmitoyltransferase 1, liver isoform (Homo sapiens, UniProt P50416); experiment: (§2) SUPPLEMENTARY: Inhibition of Carnitine palmitoyltransferase 1, liver isoform
T4 sequence (P50416 whole entry): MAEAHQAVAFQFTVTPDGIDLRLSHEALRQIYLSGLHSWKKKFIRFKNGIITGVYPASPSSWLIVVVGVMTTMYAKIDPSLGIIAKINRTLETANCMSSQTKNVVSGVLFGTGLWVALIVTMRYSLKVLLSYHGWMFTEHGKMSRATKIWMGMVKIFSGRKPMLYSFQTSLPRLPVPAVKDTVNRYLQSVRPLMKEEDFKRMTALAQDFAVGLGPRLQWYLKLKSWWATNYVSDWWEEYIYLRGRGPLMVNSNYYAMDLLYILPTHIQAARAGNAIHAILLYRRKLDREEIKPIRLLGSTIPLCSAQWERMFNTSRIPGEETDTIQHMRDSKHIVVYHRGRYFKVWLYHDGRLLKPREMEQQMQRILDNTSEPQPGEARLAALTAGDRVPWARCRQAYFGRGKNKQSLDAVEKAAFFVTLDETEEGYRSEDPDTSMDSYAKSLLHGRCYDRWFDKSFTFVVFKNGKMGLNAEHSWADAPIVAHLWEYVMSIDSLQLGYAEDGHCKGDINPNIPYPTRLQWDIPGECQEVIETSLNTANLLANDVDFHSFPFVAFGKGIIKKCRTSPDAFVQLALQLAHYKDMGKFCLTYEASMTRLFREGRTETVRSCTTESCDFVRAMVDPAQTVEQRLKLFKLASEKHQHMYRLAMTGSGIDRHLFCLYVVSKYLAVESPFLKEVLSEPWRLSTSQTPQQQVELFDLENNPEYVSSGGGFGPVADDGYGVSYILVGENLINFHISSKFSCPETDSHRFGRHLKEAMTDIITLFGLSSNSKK

[5] = target: T5, Carnitine O-palmitoyltransferase 1, liver isoform (Rattus norvegicus, UniProt P32198); experiment: as §2
T5 sequence (P32198 whole entry): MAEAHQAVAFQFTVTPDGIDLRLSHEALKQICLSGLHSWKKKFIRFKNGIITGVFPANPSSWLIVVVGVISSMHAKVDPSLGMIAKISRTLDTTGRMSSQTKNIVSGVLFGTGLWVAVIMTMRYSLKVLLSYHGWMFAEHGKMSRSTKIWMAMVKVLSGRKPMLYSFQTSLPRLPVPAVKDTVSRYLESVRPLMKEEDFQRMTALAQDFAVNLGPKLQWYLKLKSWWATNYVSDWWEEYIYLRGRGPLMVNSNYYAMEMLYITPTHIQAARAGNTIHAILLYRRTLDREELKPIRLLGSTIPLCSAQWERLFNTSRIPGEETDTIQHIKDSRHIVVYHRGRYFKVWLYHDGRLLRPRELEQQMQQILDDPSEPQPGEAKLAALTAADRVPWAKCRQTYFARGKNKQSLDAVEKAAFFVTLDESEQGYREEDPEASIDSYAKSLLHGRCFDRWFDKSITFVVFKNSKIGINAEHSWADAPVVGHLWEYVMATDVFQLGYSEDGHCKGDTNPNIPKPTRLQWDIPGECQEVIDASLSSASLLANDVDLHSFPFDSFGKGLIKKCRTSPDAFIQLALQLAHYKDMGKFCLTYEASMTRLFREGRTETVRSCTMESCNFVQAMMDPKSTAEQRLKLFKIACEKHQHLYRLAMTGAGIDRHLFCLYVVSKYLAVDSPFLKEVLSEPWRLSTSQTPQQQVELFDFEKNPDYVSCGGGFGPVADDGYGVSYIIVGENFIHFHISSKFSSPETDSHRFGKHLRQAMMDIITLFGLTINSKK

[6] = SUPPLEMENTARY: Lyophilisation Solubility Assay (LYSA); format: physicochemical; conditions: read-out: Kinetic_solubility
[7] = SUPPLEMENTARY: Lipophilicity (log D) Determination by high-throughput shake-flask; format: physicochemical; conditions: octanol/water
[8] = SUPPLEMENTARY: PAMPA permeability assay; format: physicochemical; conditions: read-out: Permeability

IC50 [1] [nM] | IC50 [2] [nM] | IC50 [3] [nM] | IC50 [4] [nM] | IC50 [5] [nM] | solubility kinetic [6] [µg/mL] | logD [7] | Papp [8] [×10⁻⁶ cm/s] | SMILES
5170 | 68500 | > 100000 | 229 | 184 | 26 (≈ 53.6 µM) | 0.47 | 1.05 | O=C(O)c1ccc(NC(=O)c2ccc3c(c2)N(Cc2cccc(Cl)c2)C(=O)CS3(=O)=O)cc1
38000 | > 100000 | > 100000 | 136 | 135 | 521 (≈ 1060 µM) | -1.22 | 0.03 | COc1ccc(Cl)cc1S(=O)(=O)N1COc2ccc(C(=O)Nc3ccn(CC(=O)O)n3)cc21
> 100000 | 40200 | 44100 | 192 | 546 | 77 (≈ 178 µM) | 2.18 | 2.18 | O=C1NCc2ccc(-c3n[nH]c([C@H]4CCCCN4C(=O)COc4ccccc4)n3)cc2N1
> 100000 | > 100000 | > 100000 | 283 | 936 | 143 (≈ 370 µM) | 2.36 | 11.5 | CCN(CC)C(=O)c1nc([C@H]2CCCCN2C(=O)COc2ccccc2)no1
1180 | 584 | 3880 | 92.2 | 46.7 | 493 (≈ 950 µM) | 0.6 | 1.99 | COc1ccc(Cl)cc1S(=O)(=O)N1CC(C)c2ccc(C(=O)Nc3ccc(C(=O)O)c(F)c3)cc21 (stereo not given)
99900 | > 100000 | > 100000 | 80.9 | 131 | 347 (≈ 666 µM) | -0.22 | 0.06 | COc1ccc(Cl)cc1S(=O)(=O)N1CC(C(=O)O)Oc2ccc(C(=O)Nc3ccc(F)cc3)cc21 (stereo not given)
> 100000 | 19100 | 19200 | 26.1 | 106 | 9.55 (≈ 23.7 µM) | 3.08 | 2.8 | O=C(COc1ccccc1)N1CCCC[C@@H]1c1nc(-c2ccc3[nH]cnc3c2)no1
> 100000 | 24300 | 86300 | 113 | 410 | 141 (≈ 346 µM) | 1.88 | 3.83 | NC(=O)c1cncc(-c2noc([C@H]3CCCCN3C(=O)COc3ccccc3)n2)c1
827 | > 100000 | > 100000 | 96.8 | 70.2 | 6 (≈ 11.6 µM) | 0.11 | 1.86 | COc1ccc(Cl)cc1S(=O)(=O)N1CCOc2ccc(C(=O)Nc3ccc(CC(=O)O)cc3)cc21
> 100000 | 37300 | > 100000 | 73.8 | 164 | 24 (≈ 55.8 µM) | 3.17 | 3.98 | CCn1c(C)nc(Cl)c1-c1noc([C@H]2CCCCN2C(=O)COc2ccccc2)n1
15500 | 5440 | 20800 | 54.2 | 39.5 | > 626 | 0.25 | 0.86 | O=C(O)c1ccc(NC(=O)c2ccc3c(c2)N(S(=O)(=O)c2cccc(Cl)c2)CCS3(=O)=O)cc1
> 100000 | 21400 | > 100000 | 129 | 153 | 31.5 (≈ 75.8 µM) | 2.35 | 5.43 | O=C(COc1ccccc1)N1CCCC[C@@H]1c1noc(-c2ccc3cccnc3n2)n1
> 100000 | 19000 | > 100000 | 144 | 923 | 19 (≈ 50.1 µM) | 2.39 | 5.07 | Nc1cncc(-c2nc([C@H]3CCCCN3C(=O)COc3ccccc3)no2)c1
5180 | 4430 | 8130 | 152 | 90.9 | 60 (≈ 120 µM) | 0.88 | 1.62 | COc1ccc(C)cc1S(=O)(=O)N1CCCc2ccc(C(=O)Nc3ccc(C(=O)O)c(F)c3)cc21
> 100000 | > 100000 | 30200 | 34.4 | 221 | 81 (≈ 213 µM) | 2.62 | 4.44 | Nc1ccc(-c2noc([C@H]3CCCCN3C(=O)COc3ccccc3)n2)cn1
